Experimental findings from patent US12570666B2, “Furoindazole derivatives” (Bayer Aktiengesellschaft, priority 2019, dated 2026) are described below.

This test concerns the target T1, human GPR84 receptor (Homo sapiens, UniProt Q9NQS5).
T1 construct: frozen aliquots prepared by acCELLerate; host or cells: CHO-K1
The experiment in a line: cAMP HTRF assay for identification of cellular GPR84 antagonists. The format is cell-based. To be noted: CHO-K1 cells stably expressing human GPR84; Forskolin + agonist 6-OAU (EC80); average or median values. In short, it runs like this: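 IC50 came from 4-parameter fits over 20 μM–0.07 nM (11 points, duplicate), normalized between DMSO (0%) and agonist-free (100% inhibition) wells. Readout: cAMP-d2/Eu-cryptate HTRF in hGPR84 CHO-K1 cells given forskolin plus agonist, compound preincubated 30 min at room temperature.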

T1 sequence (Q9NQS5 whole entry): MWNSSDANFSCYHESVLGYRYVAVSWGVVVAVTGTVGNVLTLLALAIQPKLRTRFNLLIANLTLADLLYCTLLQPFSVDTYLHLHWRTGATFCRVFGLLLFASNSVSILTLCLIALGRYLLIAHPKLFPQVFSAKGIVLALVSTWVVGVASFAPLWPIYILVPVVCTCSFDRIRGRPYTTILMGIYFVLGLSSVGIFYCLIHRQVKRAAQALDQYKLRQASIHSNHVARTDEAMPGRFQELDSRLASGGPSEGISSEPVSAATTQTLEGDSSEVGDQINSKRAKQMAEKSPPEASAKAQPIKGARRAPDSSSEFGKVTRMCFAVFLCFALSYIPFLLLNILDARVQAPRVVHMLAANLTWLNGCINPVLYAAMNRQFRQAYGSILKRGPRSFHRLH

For the molecule `Cc1ccc(Cn2cc3c(n2)-c2c(oc(C(=O)NC[C@@H]4COCCO4)c2C)CC32CC2)cn1` [Example 210], the IC50 (in general, the midpoint of a concentration-inhibition curve) came to 16 nM.

Turning to `Cc1c(C(=O)NC[C@@H]2COCCO2)oc2c1-c1nn(Cc3cccnc3)cc1CC2` [Example 45, N-[(2R)-1,4-dioxan-2-ylmethyl]-8-methyl-2-(pyridin-3-ylmethyl)-4,5-dihydro-2H-furo[2,3-g]indazole-7-carboxamide], the IC50 came out at 29 nM.

As to `Cc1c(C(=O)NC[C@@H]2CCCO2)oc2c1-c1nn(C(C)c3ccccn3)cc1CC2` (mixture of isomers) [Example 317, 8-methyl-N-{[(2S)-oxolan-2-yl]methyl}-2-[(1±)-1-(pyridin-2-yl)ethyl]-4,5-dihydro-2H-furo[2,3-g]indazole-7-carboxamide], the half-maximal inhibitory concentration (IC50) was 578 nM.

For the molecule `CCN1CCC(Cn2cc3c(n2)-c2c(oc(C(=O)NC[C@@H]4COCCO4)c2C(F)(F)F)CC3)CC1` [Example 312, N-{[(2R)-1,4-dioxan-2-yl]methyl}-2-[(1-ethylpiperidin-4-yl)methyl]-8-(trifluoromethyl)-4,5-dihydro-2H-furo[2,3-g]indazole-7-carboxamide], the IC50 was 760 nM.

For the molecule `Cc1c(C(=O)N2CCCC2CN)oc2c1-c1nn(Cc3ccccn3)cc1CC2` (racemic) [Example 30, [(2R/S)-2-(aminomethyl)pyrrolidin-1-yl][8-methyl-2-(pyridin-2-ylmethyl)-4,5-dihydro-2H-furo[2,3-g]indazol-7-yl]methanone], the IC50 was 3570 nM.

Regarding `Cc1c(C(=O)NCC2CCCO2)oc2c1-c1nn(CC3COc4ncccc4O3)cc1CC2` (single isomer, unassigned) [Example 52-1], the IC50 turned out to be 95 nM.

For the molecule `Cc1c(C(=O)NC[C@@H]2CCCO2)oc2c1-c1nn(C[C@H]3CCCO3)cc1CC2` [Example 105, 8-methyl-2-{[(2R)-tetrahydrofuran-2-yl]methyl]-N-[(2S)-tetrahydrofuran-2-ylmethyl]-4,5-dihydro-2H-furo[2,3-g]indazole-7-carboxamide], the IC50 stood at 72 nM.

For the molecule `Cc1c(C(=O)NC[C@@H]2COCCO2)oc2c1-c1nn(C[C@@H]3CCO3)cc1CC2` [Example 100, N-[(2R)-1,4-dioxan-2-ylmethyl]-8-methyl-2-[(2S)-oxetan-2-ylmethyl]-4,5-dihydro-2H-furo[2,3-g]indazole-7-carboxamide], the half-maximal inhibitory concentration (IC50) stood at 310 nM.

In the case of `Cc1c(C(=O)NC[C@@H]2COCCO2)oc2c1-c1nn(Cc3noc(C4CC4)n3)cc1CC2` [Example 138], the IC50 is 43 nM.

In the case of `Cc1c(C(=O)NC[C@@H]2CCCO2)oc2c1-c1nn(C[C@@H]3CN(C)CCO3)cc1CC2` [Example 103, 8-methyl-2-{[(2S)-4-methylmorpholin-2-yl]methyl}-N-[(2S)-tetrahydrofuran-2-ylmethyl]-4,5-dihydro-2H-furo[2,3-g]indazole-7-carboxamide], the IC50 amounted to 170 nM.

On to `Cc1noc(C)c1CNC(=O)c1oc2c(c1C)-c1nn(Cc3ccccn3)cc1CC2` [Example 27, N-[(3,5-dimethyl-1,2-oxazol-4-yl)methyl]-8-methyl-2-(pyridin-2-ylmethyl)-4,5-dihydro-2H-furo[2,3-g]indazole-7-carboxamide], for which the IC50 stood at 17500 nM.

For `CC(=O)N1CCC(Cn2cc3c(n2)-c2c(oc(C(=O)NC[C@@H]4CCCO4)c2C(F)(F)F)C[C@H]3C)CC1` (single isomer, unassigned) [Example 292, (4R or 4S)-2-[(1-acetylpiperidin-4-yl)methyl]-4-methyl-N-{[(2S)-oxolan-2-yl]methyl}-8-(trifluoromethyl)-4,5-dihydro-2H-furo[2,3-g]indazole-7-carboxamide], the IC50 was determined as 6 nM.

Consider `Cc1c(C(=O)Nc2ccc(C#N)cc2)oc2c1-c1nn(Cc3ccccn3)cc1CC2` [Example 43, N-(4-cyanophenyl)-8-methyl-2-(pyridin-2-ylmethyl)-4,5-dihydro-2H-furo[2,3-g]indazole-7-carboxamide], for which the IC50 was 11100 nM.

Take `Cc1ccc(Cn2cc3c(n2)-c2c(oc(C(=O)NCc4ccn(C)n4)c2C(F)(F)F)CC32CCC2)nc1` [Example 279, N-[(1-Methyl-1H-pyrazol-3-yl)methyl]-2′-[(5-methylpyridin-2-yl)methyl]-8′-(trifluormethyl)-2′,5′-dihydrospiro[cyclobutan-1,4′-furo[2,3-g]indazol]-7′-carboxamide]: the IC50 was 53 nM.

For the molecule `O=C(NC[C@H]1CC(F)(F)CO1)c1oc2c(c1C(F)(F)F)-c1nn(C[C@H]3COCCO3)cc1CC2` (single isomer, unassigned) [Example 222-2, N-{[(2S or 2R)-4,4-difluorooxolan-2-yl]methyl}-2-{[(2S)-1,4-dioxan-2-yl]methyl}-8-(trifluoromethyl)-4,5-dihydro-2H-furo[2,3-g]indazole-7-carboxamide], the IC50 amounted to 54 nM.

For `O=C(NC[C@@H]1CCCO1)c1oc2c(c1C(F)F)-c1nn(C[C@H]3COCCO3)cc1CC2` [Example 245, 8-(difluoromethyl)-2-{[(2S)-1,4-dioxan-2-yl]methyl}-N-{[(2S)-oxolan-2-yl]methyl}-4,5-dihydro-2H-furo[2,3-g]indazole-7-carboxamide], the IC50 was 61 nM.

`O=C(NCc1cnccn1)c1oc2c(c1C(F)(F)F)-c1nn(C[C@H]3COCCO3)cc1CC2` [Example 228, 2-[(2S)-1,4-Dioxan-2-ylmethyl]-N-(pyrazin-2-ylmethyl)-8-(trifluormethyl)-4,5-dihydro-2H-furo[2,3-g]indazol-7-carboxamide]: the IC50 turned out to be 38 nM.

As to `Cc1c(C(=O)NC[C@@H]2CCCO2)oc2c1-c1nn(CC3(F)CNC3)cc1CC2` [Example 157, 2-[(3-fluoroazetidin-3-yl)methyl]-8-methyl-N-[(2S)-tetrahydrofuran-2-ylmethyl]-4,5-dihydro-2H-furo[2,3-g]indazole-7-carboxamide], the IC50 came out at 180 nM.

In the case of `Cc1c(C(=O)NC[C@@H]2CCCO2)oc2c1-c1nn(Cc3ccncc3)cc1CC2` [Example 46, 8-methyl-2-(pyridin-4-ylmethyl)-N-[(2S)-tetrahydrofuran-2-ylmethyl]-4,5-dihydro-2H-furo[2,3-g]indazole-7-carboxamide], the IC50 was 13 nM.

Take `CC1Cc2oc(C(=O)NC[C@@H]3COCCO3)c(C(F)(F)F)c2-c2nn(C[C@H]3COCCO3)cc21` (single isomer, unassigned) [Example 254-2, (4R or 4S)-N-{[(2R)-1,4-dioxan-2-yl]methyl}-2-{[(2S)-1,4-dioxan-2-yl]methyl}-4-methyl-8-(trifluoromethyl)-4,5-dihydro-2H-furo[2,3-g]indazole-7-carboxamide]: the IC50 came out at 46 nM.

For the molecule `O=C(NC[C@@H]1CCCO1)c1oc2c(c1C(F)(F)F)-c1nn(C[C@H]3COCCO3)cc1C1(CC1)C2` [Example 168, 2′-[(2S)-1,4-dioxan-2-ylmethyl]-N-[(2S)-tetrahydrofuran-2-ylmethyl]-8′-(trifluoromethyl)-2′,5′-dihydrospiro[cyclopropane-1,4′-furo[2,3-g]indazole]-7′-carboxamide], the IC50 was determined as 10 nM.

As for `Cc1c(C(=O)NC[C@@H]2COCCO2)oc2c1-c1nn(C[C@@H]3CCOC3)cc1CC2` [Example 114, N-[(2R)-1,4-dioxan-2-ylmethyl]-8-methyl-2-[(3S)-tetrahydrofuran-3-ylmethyl]-4,5-dihydro-2H-furo[2,3-g]indazole-7-carboxamide], the IC50 stood at 200 nM.

Turning to `Cc1ccc(Cn2cc3c(n2)-c2c(oc(C(=O)NC[C@@H]4CCCO4)c2C)CC32CCC2)nc1` [Example 203], the IC50 amounted to 22 nM.

For `Cc1c(C(=O)NC[C@@H]2CCCO2)oc2c1-c1nn(C[C@H]3COCCO3)cc1C1(CCC1)C2` [Example 143, 2′-[(2S)-1,4-dioxan-2-ylmethyl]-8′-methyl-N-[(2S)-tetrahydrofuran-2-ylmethyl]-2′,5′-dihydrospiro[cyclobutane-1,4′-furo[2,3-g]indazole]-7′-carboxamide], the IC50 worked out at 77 nM.

With `Cc1c(C(=O)NCc2ncco2)oc2c1-c1nn(C[C@H]3COCCO3)cc1C1(CC1)C2` [Example 128, 2′-[(2S)-1,4-dioxan-2-ylmethyl]-8′-methyl-N-(1,3-oxazol-2-ylmethyl)-2′,5′-dihydrospiro[cyclopropane-1,4′-furo[2,3-g]indazole]-7′-carboxamide], the IC50 worked out at 110 nM.

For `Cc1ccc(Cn2cc3c(n2)-c2c(oc(C(=O)NC[C@@H]4COCCO4)c2C)CC3)nc1` [Example 65, N-[(2R)-1,4-dioxan-2-ylmethyl]-8-methyl-2-[(5-methylpyridin-2-yl)methyl]-4,5-dihydro-2H-furo[2,3-g]indazole-7-carboxamide], the IC50 worked out at 26 nM.

`O=C(NC[C@@H]1CCCO1)c1oc2c(c1C1CC1)-c1nn(C[C@H]3COCCO3)cc1CC2` [Example 194]: the IC50 stood at 30 nM.

With `C[C@@H]1Cc2oc(C(=O)NCc3ncco3)c(C(F)(F)F)c2-c2nn(C[C@H]3COCCO3)cc21` (single isomer, unassigned) [Example 256, (4R or 4S)-2-{[(2S)-1,4-dioxan-2-yl]methyl}-4-methyl-N-[(1,3-oxazol-2-yl)methyl]-8-(trifluoromethyl)-4,5-dihydro-2H-furo[2,3-g]indazole-7-carboxamide], the IC50 came out at 14 nM.

As for `Cc1c(C(=O)NCCN2CCN(c3cccc(C(F)(F)F)c3)CC2)oc2c1-c1nn(Cc3ccccn3)cc1CC2` [Example 13, 8-methyl-2-(pyridin-2-ylmethyl)-N-(2-{4-[3-(trifluoromethyl)phenyl]piperazin-1yl}ethyl)-4,5-dihydro-2H-furo[2,3-g]indazole-7-carboxamide], the IC50 is 1650 nM.

As to `Cc1c(C(=O)NC[C@@H]2CCCO2)oc2c1-c1nn(CC3CC3)cc1C1(CC1)C2` [Example 129, 2′-(cyclopropylmethyl)-8′-methyl-N-[(2S)-tetrahydrofuran-2-ylmethyl]-2′,5′-dihydrospiro[cyclopropane-1,4′-furo[2,3-g]indazole]-7′-carboxamide], the IC50 is 55 nM.
